Row | Structure (SMILES) | melting point
1 | Cc1c(NC(=O)c2ccc(OCC3CC3)cc2)ccc2[nH]c(CNCC3CCOCC3)cc12 [Example 43, 4-(cyclopropylmethoxy)-N-(4-methyl-2-{[(tetrahydro-2H-pyran-4-ylmethyl)amino]methyl}-1H-indol-5-yl)benzamide] | 181 to 182 °C
2 | Cc1c(NC(=O)c2ccc(OCC3CC3)cc2)ccc2[nH]c(CNC3CCCC3)cc12 [Example 45, N-{2-[(cyclopentylamino)methyl]-4-methyl-1H-indol-5-yl}-4-(cyclopropylmethoxy)benzamide] | 207 to 208 °C
3 | Cc1c(NC(=O)c2ccc(OC[C@@H]3CCCO3)cc2)ccc2[nH]c(CNCC3CCOCC3)cc12 [Example 47, N-(4-methyl-2-{[(tetrahydro-2H-pyran-4-ylmethyl)amino]methyl}-1H-indol-5-yl)-4-[(2S)-tetrahydrofuran-2-ylmethoxy]benzamide] | 166 to 167 °C
4 | Cc1c(NC(=O)c2ccc(OC[C@@H]3CCCO3)cc2)ccc2c1cc(CNCC(C)(C)O)n2C [Example 52, N-(2-{[(2-hydroxy-2-methylpropyl)amino]methyl}-1,4-dimethyl-1H-indol-5-yl)-4-[(2S)-tetrahydrofuran-2-ylmethoxy]benzamide] | 160 to 162 °C
5 | Cc1c(NC(=O)c2ccc(OC[C@@H]3CCCO3)cc2)ccc2c1cc(CNCC(C)C)n2C [Example 54, N-(1,4-dimethyl-2-{[(2-methylpropyl)amino]methyl}-1H-indol-5-yl)-4-[(2S)-tetrahydrofuran-2-ylmethoxy]benzamide] | 162 °C
6 | Cc1c(NC(=O)c2ccc(OC[C@@H]3CCCO3)cc2)ccc2c1cc(CNC1CCCC1)n2C [Example 56, N-{2-[(cyclopentylamino)methyl]-1,4-dimethyl-1H-indol-5-yl}-4-[(2S)-tetrahydrofuran-2-ylmethoxy]benzamide] | 189 °C
7 | CCCNCc1cc2c(C)c(NC(=O)c3ccc(OC[C@@H]4CCCO4)cc3)ccc2n1C [Example 57, N-{1,4-dimethyl-2-[(propylamino)methyl]-1H-indol-5-yl}-4-[(2S)-tetrahydrofuran-2-ylmethoxy]benzamide] | 225 °C
8 | Cc1c(NC(=O)c2ccc(OC[C@@H]3CCCO3)cc2)ccc2c1cc(CN1CCC(C)(O)CC1)n2C [Example 58, N-{2-[(4-hydroxy-4-methylpiperidin-1-yl)methyl]-1,4-dimethyl-1H-indol-5-yl}-4-[(2S)-tetrahydrofuran-2-ylmethoxy]benzamide] | 210 °C
9 | Cc1c(NC(=O)c2ccc(OC[C@@H]3CCCO3)cc2F)ccc2c1cc(CN[C@H]1CC[C@](C)(O)CC1)n2C [Example 59, 2-fluoro-N-(2-{[(trans-4-hydroxy-4-methylcyclohexyl)amino]methyl}-1,4-dimethyl-1H-indol-5-yl)-4-[(2S)-tetrahydrofuran-2-ylmethoxy]benzamide] | 124 °C
10 | Cc1c(NC(=O)c2ccc(OC[C@@H]3CCCO3)cc2F)ccc2c1cc(CNCC(C)C)n2C [Example 61, N-(1,4-dimethyl-2-{[(2-methylpropyl)amino]methyl}-1H-indol-5-yl)-2-fluoro-4-[(2S)-tetrahydrofuran-2-ylmethoxy]benzamide] | 104 to 105 °C
11 | Cc1c(NC(=O)c2ccc(OCC3CC3)cc2)ccc2cc(CNCC(C)(C)C)[nH]c12 [Example 65, 4-(cyclopropylmethoxy)-N-(2-{[(2,2-dimethylpropyl)amino]methyl}-7-methyl-1H-indol-6-yl)benzamide] | 199 °C
12 | Cc1c(NC(=O)c2ccc(OC[C@@H]3CCCO3)cc2)ccc2cc(CNCC(C)(C)C)[nH]c12 [Example 69, N-(2-{[(2,2-dimethylpropyl)amino]methyl}-7-methyl-1H-indol-6-yl)-4-[(2S)-tetrahydrofuran-2-ylmethoxy]benzamide] | 168 °C
13 | Cc1c(NC(=O)c2ccc(OC[C@@H]3CCCO3)cc2)ccc2cc(CNCC(C)C)[nH]c12 [Example 72, N-(7-methyl-2-{[(2-methylpropyl)amino]methyl}-1H-indol-6-yl)-4-[(2S)-tetrahydrofuran-2-ylmethoxy]benzamide] | 159 °C
14 | Cc1c(NC(=O)c2ccc(OC[C@@H]3CCCO3)cc2)ccc2cc(CNC3CCCC3)[nH]c12 [Example 73, N-{2-[(cyclopentylamino)methyl]-7-methyl-1H-indol-6-yl}-4-[(2S)-tetrahydrofuran-2-ylmethoxy]benzamide] | 159 to 163 °C
15 | Cc1c(NC(=O)c2ccc(OC[C@@H]3CCCO3)cc2F)ccc2cc(CNCC(C)(C)O)[nH]c12 [Example 76, 2-fluoro-N-(2-{[(2-hydroxy-2-methylpropyl)amino]methyl}-7-methyl-1H-indol-6-yl)-4-[(2S)-tetrahydrofuran-2-ylmethoxy]benzamide] | 148 to 149 °C

The next lines start with the values.

Row | melting point | Structure (SMILES)
16 | 191 °C | Cc1c(CN[C@H]2CC[C@](C)(O)CC2)n(C)c2ccc(NC(=O)c3ccc(OCC4CC4)cc3)cc12 [Example 42, 4-(cyclopropylmethoxy)-N-(2-{[(trans-4-hydroxy-4-methylcyclohexyl)amino]methyl}-1,3-dimethyl-1H-indol-5-yl)benzamide]
17 | 186 °C | Cc1c(NC(=O)c2ccc(OCC3CC3)cc2)ccc2[nH]c(CNCC(C)(C)O)cc12 [Example 44, 4-(cyclopropylmethoxy)-N-(2-{[(2-hydroxy-2-methylpropyl)amino]methyl}-4-methyl-1H-indol-5-yl)benzamide]
18 | 169 to 170 °C | Cc1c(NC(=O)c2ccc(OC[C@@H]3CCCO3)cc2)ccc2[nH]c(CNCC(C)(C)O)cc12 [Example 48, N-(2-{[(2-hydroxy-2-methylpropyl)amino]methyl}-4-methyl-1H-indol-5-yl)-4-[(2S)-tetrahydrofuran-2-ylmethoxy]benzamide]
19 | 191 to 192 °C | Cc1c(NC(=O)c2ccc(OC[C@@H]3CCCO3)cc2)ccc2[nH]c(CNC3CCCC3)cc12 [Example 49, N-{2-[(cyclopentylamino)methyl]-4-methyl-1H-indol-5-yl}-4-[(2S)-tetrahydrofuran-2-ylmethoxy]benzamide]
20 | 149 °C | Cc1c(NC(=O)c2ccc(OC[C@@H]3CCCO3)cc2F)ccc2c1cc(CNCC1CCOCC1)n2C [Example 62, N-(1,4-dimethyl-2-{[(tetrahydro-2H-pyran-4-ylmethyl)amino]methyl}-1H-indol-5-yl)-2-fluoro-4-[(2S)-tetrahydrofuran-2-ylmethoxy]benzamide]
21 | 176 to 177 °C | Cc1c(NC(=O)c2ccc(OCC3CC3)cc2)ccc2cc(CNCC(C)C)[nH]c12 [Example 64, 4-(cyclopropylmethoxy)-N-(7-methyl-2-{[(2-methylpropyl)amino]methyl}-1H-indol-6-yl)benzamide]
22 | 167 to 168 °C | Cc1c(NC(=O)c2ccc(OCC3CC3)cc2)ccc2cc(CNCC3CCOCC3)[nH]c12 [Example 66, 4-(cyclopropylmethoxy)-N-(7-methyl-2-{[(tetrahydro-2H-pyran-4-ylmethyl)amino]methyl}-1H-indol-6-yl)benzamide]
23 | 195 °C | Cc1c(NC(=O)c2ccc(OCC3CC3)cc2)ccc2cc(CN3CCC(C)(O)CC3)[nH]c12 [Example 68, 4-(cyclopropylmethoxy)-N-{2-[(4-hydroxy-4-methylpiperidin-1-yl)methyl]-7-methyl-1H-indol-6-yl}benzamide]

Source: patent US8642770B2, “Indole derivative” (Takeda Pharmaceutical Company Limited, priority 2010, dated 2014)
